Consider 13 molecules from ChEMBL document CHEMBL4229384, “Success stories of natural product-based hybrid molecules for multi-factorial diseases” (Eur J Med Chem, 2018).

In brackets after ≈: the same amount, converted by molar mass.

One assay concerns MOLT-4. As to the kind of experiment: Antiproliferative activity against human MOLT4 cells. The class given is functional, cell-based.
The subject of the next assay is UCLA P-3. As to the kind of experiment: Antiproliferative activity against human UCLA-P3 cells. Format: functional, cell-based.
For assay [1], the system named is Mycobacterium tuberculosis. Nature of the assay: Antitubercular activity against Mycobacterium tuberculosis H37Rv. The class given is functional.
For assay [2], the target named is Acetylcholinesterase (Electrophorus electricus, UniProt O42275). As to the kind of experiment: Inhibition of electric eel AChE using acetylthiocholine iodide as substrate measured for 120 secs by spectrophotometric analysis.
In assay [3] the target is T1, Acetylcholinesterase (Bos taurus, UniProt P23795).
T1 sequence (P23795 whole entry): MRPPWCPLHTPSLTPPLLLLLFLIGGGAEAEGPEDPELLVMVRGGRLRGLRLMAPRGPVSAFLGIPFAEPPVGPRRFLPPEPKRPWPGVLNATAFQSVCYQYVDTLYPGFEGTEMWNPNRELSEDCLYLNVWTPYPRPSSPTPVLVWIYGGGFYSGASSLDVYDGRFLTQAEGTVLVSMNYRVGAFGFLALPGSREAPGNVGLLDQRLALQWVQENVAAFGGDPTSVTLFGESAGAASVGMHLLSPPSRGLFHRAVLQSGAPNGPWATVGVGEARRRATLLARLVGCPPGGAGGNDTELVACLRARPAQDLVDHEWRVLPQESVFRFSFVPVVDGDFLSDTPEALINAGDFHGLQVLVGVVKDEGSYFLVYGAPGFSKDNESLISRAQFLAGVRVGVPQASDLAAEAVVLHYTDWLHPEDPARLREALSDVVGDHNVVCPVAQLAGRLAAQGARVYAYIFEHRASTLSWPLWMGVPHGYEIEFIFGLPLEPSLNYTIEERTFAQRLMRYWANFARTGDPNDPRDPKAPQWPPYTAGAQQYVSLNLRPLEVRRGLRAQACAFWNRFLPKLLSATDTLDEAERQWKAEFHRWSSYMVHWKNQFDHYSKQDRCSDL
As to the kind of experiment: Inhibition of bovine erythrocyte AchE using acetylthiocholine iodide as substrate after 15 mins by spectrophotometric analysis.

The target of assay [4] is T2, Phospholipase A2, membrane associated (Homo sapiens) (UniProt P14555).
T2 sequence (whole entry): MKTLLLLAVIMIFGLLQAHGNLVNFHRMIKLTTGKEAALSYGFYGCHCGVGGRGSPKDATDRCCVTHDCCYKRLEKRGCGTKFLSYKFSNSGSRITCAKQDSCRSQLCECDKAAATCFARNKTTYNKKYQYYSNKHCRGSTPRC
Nature of the assay: Inhibition of human sPLA2-2A assessed as reduction in nitric oxide level at 10 uM relative to control.

In assay [5] the target is T2, Phospholipase A2, membrane associated (Homo sapiens). As to the kind of experiment: Inhibition of human sPLA2-2A at 100 uM relative to control.
The target is the same in assay [6]. As to the kind of experiment: Inhibition of human sPLA2-2A assessed as reduction in PGE2 level at 10 uM relative to control.
The next assay has as its target T3, Estrogen receptor (Homo sapiens, UniProt P03372).
T3 sequence (P03372 whole entry): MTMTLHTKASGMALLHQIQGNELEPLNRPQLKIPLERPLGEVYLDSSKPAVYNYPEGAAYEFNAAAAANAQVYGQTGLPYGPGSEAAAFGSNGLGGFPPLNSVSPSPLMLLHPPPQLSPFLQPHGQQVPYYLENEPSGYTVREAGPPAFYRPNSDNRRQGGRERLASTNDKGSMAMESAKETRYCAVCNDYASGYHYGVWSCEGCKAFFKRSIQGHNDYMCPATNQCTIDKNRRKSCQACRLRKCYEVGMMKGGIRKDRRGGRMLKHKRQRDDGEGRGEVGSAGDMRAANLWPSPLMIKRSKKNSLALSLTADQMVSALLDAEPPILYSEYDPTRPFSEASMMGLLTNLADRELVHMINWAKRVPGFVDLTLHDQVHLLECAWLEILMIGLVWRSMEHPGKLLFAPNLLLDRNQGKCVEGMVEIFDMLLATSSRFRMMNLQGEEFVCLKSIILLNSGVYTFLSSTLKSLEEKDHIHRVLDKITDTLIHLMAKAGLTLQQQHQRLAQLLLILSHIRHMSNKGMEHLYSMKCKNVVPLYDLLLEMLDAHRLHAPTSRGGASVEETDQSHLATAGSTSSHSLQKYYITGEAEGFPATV
Nature of the assay: Inhibition of estrogen receptor in human MCF-7 cells. Format: cell-based.

Assay [7] has as its target Receptor tyrosine-protein kinase erbB-2 (Homo sapiens, UniProt P04626). As to the kind of experiment: Inhibition of HER2 in human MCF-7 cells. Format: cell-based.
A further assay deals with A549. As to the kind of experiment: Cytotoxicity against human A549 cells assessed as reduction in cell viability. Format: functional. To be noted: read-out: ED50 (the source's name).
Assay [8] can be described thus: Cytotoxicity against mouse […] cells assessed as reduction in cell viability after 24 to 72 hrs by MTT assay. The class given is cell-based.
Assay [9] is described as follows: Cytotoxicity against bovine GM07373 cells assessed as reduction in cell viability after 24 to 72 hrs by MTT assay. The class given is cell-based. The settings on record: Bos taurus.
In a further assay the test system is IGR-1. Nature of the assay: Cytotoxicity against human IGR-1 cells assessed as reduction in cell viability after 24 to 72 hrs by MTT assay. Format: functional, cell-based.
For the next assay, the system named is P338. As to the kind of experiment: Cytotoxicity against mouse […] cells assessed as reduction in cell viability after 24 to 72 hrs by MTT assay. Format: functional, cell-based.

Sequence of Receptor tyrosine-protein kinase erbB-2 (P04626 whole entry): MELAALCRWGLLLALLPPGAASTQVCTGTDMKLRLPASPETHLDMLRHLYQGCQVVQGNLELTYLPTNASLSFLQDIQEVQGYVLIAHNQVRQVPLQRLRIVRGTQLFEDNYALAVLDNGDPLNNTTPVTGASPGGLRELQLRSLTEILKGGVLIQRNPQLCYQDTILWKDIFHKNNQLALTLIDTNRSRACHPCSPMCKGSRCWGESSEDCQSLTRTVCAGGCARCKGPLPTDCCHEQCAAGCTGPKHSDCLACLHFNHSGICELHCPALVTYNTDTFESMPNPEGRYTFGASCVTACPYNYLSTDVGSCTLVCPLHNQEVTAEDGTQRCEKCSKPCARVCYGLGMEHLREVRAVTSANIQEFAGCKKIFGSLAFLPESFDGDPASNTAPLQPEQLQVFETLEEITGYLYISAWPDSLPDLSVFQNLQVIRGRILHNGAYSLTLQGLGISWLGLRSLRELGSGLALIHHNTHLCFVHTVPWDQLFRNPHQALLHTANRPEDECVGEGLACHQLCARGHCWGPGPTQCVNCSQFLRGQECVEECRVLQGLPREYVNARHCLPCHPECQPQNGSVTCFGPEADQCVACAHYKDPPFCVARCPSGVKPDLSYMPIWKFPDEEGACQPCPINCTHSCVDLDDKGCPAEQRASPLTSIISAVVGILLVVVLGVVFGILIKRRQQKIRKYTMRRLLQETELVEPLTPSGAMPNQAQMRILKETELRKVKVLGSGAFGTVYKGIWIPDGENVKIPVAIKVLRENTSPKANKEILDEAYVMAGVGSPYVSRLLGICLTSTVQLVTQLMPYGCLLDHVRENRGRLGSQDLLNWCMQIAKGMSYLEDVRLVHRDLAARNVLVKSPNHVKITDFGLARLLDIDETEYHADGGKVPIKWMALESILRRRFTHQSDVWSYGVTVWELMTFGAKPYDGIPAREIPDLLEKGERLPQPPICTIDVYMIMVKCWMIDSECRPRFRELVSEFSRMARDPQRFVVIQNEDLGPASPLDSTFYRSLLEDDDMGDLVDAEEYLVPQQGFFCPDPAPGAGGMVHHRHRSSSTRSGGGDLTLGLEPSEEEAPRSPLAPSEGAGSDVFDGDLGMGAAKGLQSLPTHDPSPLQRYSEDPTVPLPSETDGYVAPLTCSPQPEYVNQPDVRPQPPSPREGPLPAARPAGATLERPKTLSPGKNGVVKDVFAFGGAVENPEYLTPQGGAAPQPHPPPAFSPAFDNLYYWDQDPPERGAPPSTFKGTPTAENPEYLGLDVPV
Sequence of Acetylcholinesterase (Electrophorus electricus, UniProt O42275) (O42275 whole entry): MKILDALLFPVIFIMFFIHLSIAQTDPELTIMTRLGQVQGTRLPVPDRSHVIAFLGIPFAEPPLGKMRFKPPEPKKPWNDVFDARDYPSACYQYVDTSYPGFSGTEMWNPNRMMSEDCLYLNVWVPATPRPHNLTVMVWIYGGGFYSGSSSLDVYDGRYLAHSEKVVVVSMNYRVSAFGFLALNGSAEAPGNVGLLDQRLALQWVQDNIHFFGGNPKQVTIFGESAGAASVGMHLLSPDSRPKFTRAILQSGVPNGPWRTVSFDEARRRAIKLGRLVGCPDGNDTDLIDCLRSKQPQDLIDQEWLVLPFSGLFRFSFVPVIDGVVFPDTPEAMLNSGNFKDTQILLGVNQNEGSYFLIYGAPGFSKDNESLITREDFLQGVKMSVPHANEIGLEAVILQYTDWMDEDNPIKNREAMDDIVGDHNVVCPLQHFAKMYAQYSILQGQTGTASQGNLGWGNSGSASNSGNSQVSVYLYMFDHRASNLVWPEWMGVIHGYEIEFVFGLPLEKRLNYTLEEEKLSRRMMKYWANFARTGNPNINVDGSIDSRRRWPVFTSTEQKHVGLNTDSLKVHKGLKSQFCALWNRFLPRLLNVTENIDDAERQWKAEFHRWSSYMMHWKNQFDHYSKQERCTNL

`CCN[C@H]1CO[C@@H](O[C@H]2[C@H](OCOC[C@@]34C#CCCC#C[C@@H]5N(C(=O)OCCS(=O)(=O)c6ccccc6)c6ccccc6[C@]36O[C@@]56CCC4)O[C@H](C)[C@@H](NO[C@H]3C[C@H](O)[C@H](SC(=O)c4c(C)c(I)c(O[C@@H]5O[C@@H](C)[C@H](O)[C@@H](OC)[C@H]5O)c(OC)c4OC)[C@@H](C)O3)[C@@H]2O)C[C@@H]1OC`: the half-inhibitory concentration (IC50) in the assay on MOLT-4 came to 0.16 µM; with UCLA P-3, 0.0001 µM.

In assay [1], `C[C@@]12CC[C@@H]3[C@@](CC[C@H]4[C@@]3(C)CCC[C@@]4(C)C(=O)O)(C/C1=N\NC(=O)c1ccccn1)C2` gave a minimal inhibitory concentration (MIC) of 10 to 20 µg/mL (≈ 22.9 to 45.7 µM).

Regarding `CCN[C@H]1CO[C@@H](O[C@H]2[C@H](OC[C@]34C#C/C=C\C#C[C@H]5N(C(=O)OCCS(=O)(=O)c6ccccc6)c6ccccc6[C@@]36O[C@]56CCC4)O[C@H](C)[C@@H](NO[C@H]3C[C@H](O)[C@H](SC(=O)c4c(C)c(I)c(O[C@@H]5O[C@@H](C)[C@H](O)[C@@H](OC)[C@H]5O)c(OC)c4OC)[C@@H](C)O3)[C@@H]2O)C[C@@H]1OC`, the IC50 in the assay with MOLT-4 and with UCLA P-3 was 0.001 µM each time.

For the molecule `COc1ccc2c3c1O[C@H]1C[C@@H](O)CC[C@@]31CCN(CCCCCCCCCCCC[N+]1=Cc3ccc(OC)c4c3[C@@]3(C=C[C@H](O)C[C@@H]3O4)CC1)C2`, inhibition against Acetylcholinesterase [2] was half-maximal at 0.012 µM (IC50).

At Acetylcholinesterase [3], `CCC1CCC2CC(Cc3nc4ccccc4c(N)c32)C1` (configuration not stated) displayed an IC50 of 0.00115 µM.

Take `C[C@@H](C1=CC[C@@H]2[C@@H]3[C@@H](O)[C@H](O)[C@H]4C[C@@H](O)CC[C@]4(C)[C@H]3CC[C@]12C)[C@@H](O)C1=CC(=O)OC1O` (some centres not stated): the inhibition in assay [4] is 64%; in assay [5] it was 63%; in assay [6] it was 72%.

On to `CO[C@H]1/C=C\C=C(/C)C(=O)NC2=CC(=O)C(NC/C=C/CCC[C@@H]3C[C@H]4[C@@H]5CCc6cc(O)ccc6[C@H]5CC[C@]4(C)[C@H]3O)=C(C[C@@H](C)C[C@H](OC)[C@H](O)[C@@H](C)/C=C(\C)[C@@H]1OC(N)=O)C2=O` (stereo in doubt), for which the IC50 at Estrogen receptor came out at 0.08 µM; in assay [7] it was 0.1 µM.

Turning to `COc1ccc2c(c1)CC[C@@H]1[C@@H]2CC[C@]2(C)CO[C@@]3(C[C@@H](O)C(CO)=CO3)C[C@@H]12`, the EC50 in the assay with A549 stood at 23 µM.

Turning to `CC(C)[C@@H](C)/C=C/[C@@H](C)[C@H]1CC[C@H]2c3ccc4c(c3CC[C@]12C)C(=O)c1c(O)ccc(O)c1C4=O`, the IC50 turned out to be 23 µM in [8], 34 µM in assay [9], 23 µM in the assay on IGR-1 and 49 µM in the assay with P338.

Consider `CO[C@H]1/C=C\C=C(/C)C(=O)NC2=CC(=O)C(NCC#CCC[C@@H]3C[C@H]4[C@@H]5CCc6cc(O)ccc6[C@H]5CC[C@]4(C)[C@H]3O)=C(C[C@@H](C)C[C@H](OC)[C@H](O)[C@@H](C)/C=C(\C)[C@@H]1OC(N)=O)C2=O` (stereo in doubt), for which the IC50 on Estrogen receptor is 0.22 µM; in assay [7], 0.1 µM.

On Acetylcholinesterase [2], `COc1ccc2c3c1O[C@H]1C[C@@H](O)CC[C@@]31CCN(CCCCCCCCN1CC[C@@]34C=C[C@H](O)C[C@@H]3Oc3c(OC)ccc(c34)C1)C2` gave an IC50 of 0.23 µM.

`CC1CCC2CC(Cc3nc4ccccc4c(N)c32)C1` (configuration not stated) yielded an IC50 against Acetylcholinesterase [3] of 0.0013 µM.

For the molecule `COC(=O)[C@]1(C)CCC[C@@]2(C)[C@@H]3CC[C@@]4(C)C[C@]3(CC[C@@H]21)C/C4=N\NC(=O)c1cccnc1`, in assay [1], the MIC fell in the range of 10 to 20 µg/mL (≈ 22.1 to 44.3 µM).
